These results are taken from ChEMBL document CHEMBL4619827, “Design, Synthesis, and Biological Evaluation of Novel Acylhydrazone Derivatives as Potent Neuraminidase Inhibitors” (ACS Med Chem Lett, 2020).

Each structure is given as a SMILES string.

This assay can be described thus: Inhibition of clostridium perfringens neuraminidase using fluorescent substrate preincubated for 2 mins followed by substrate addition and measured after 1 hr by fluorescence based microplate reader analysis.

As for `COc1cc([N+](=O)[O-])ccc1OCc1cccc(/C=N/NC(=O)C(=O)NCCCN2CCOCC2)c1`, half-maximal inhibition (IC50) required 28.4 µM. As for `CCC(CC)O[C@@H]1C=C(C(=O)O)C[C@H](N)[C@H]1NC(C)=O` [OSELTAMIVIR CARBOXYLATE], the figure is 17 µM. In the case of `O=C(NCCCN1CCOCC1)C(=O)N/N=C/c1cccc(COc2cc(F)ccc2[N+](=O)[O-])c1`, the IC50 was determined as 17.8 µM. As for `O=C(NCCCN1CCOCC1)C(=O)N/N=C/c1cccc(COc2ccc([N+](=O)[O-])cc2)c1`, the figure is 27.8 µM; as for `COc1ccc(Br)cc1OCc1cccc(/C=N/NC(=O)C(=O)NCCCN2CCOCC2)c1`, 7.31 µM; as for `O=C(NCCCN1CCOCC1)C(=O)N/N=C/c1cccc(COc2cccc(Cl)c2)c1`, 22.1 µM. As for `COc1ccc(OCc2cccc(/C=N/NC(=O)C(=O)NCCCN3CCOCC3)c2)cc1`, the figure is 0.6 µM.

`COc1ccccc1OCc1cccc(/C=N/NC(=O)C(=O)NCCCN2CCOCC2)c1` gave an IC50 of 47.8 µM. With `CC(=O)Nc1ccc(OCc2cccc(/C=N/NC(=O)C(=O)NCCCN3CCOCC3)c2)cc1`, the IC50 was determined as 73.4 µM.

As to `O=C(NCCCN1CCOCC1)C(=O)N/N=C/c1cccc(COc2ccc(Cl)cc2)c1`, inhibition was half-maximal at 6.2 µM (IC50).

The compound `O=C(NCCCN1CCOCC1)C(=O)N/N=C/c1cccc(COc2ccccc2Cl)c1` showed an IC50 of 20.4 µM.

Regarding `O=C(NCCCN1CCOCC1)C(=O)N/N=C/c1cccc(COc2ccccc2F)c1`, the IC50 was found to be 21.6 µM. As for `COc1cccc(OCc2cccc(/C=N/NC(=O)C(=O)NCCCN3CCOCC3)c2)c1`, the figure is 13.6 µM; as for `O=C(NCCCN1CCOCC1)C(=O)N/N=C/c1cccc(COc2ccccc2[N+](=O)[O-])c1`, 86 µM. The same measure for `O=C(NCCCN1CCOCC1)C(=O)N/N=C/c1cccc(COc2ccc(F)cc2)c1`: 5.29 µM.

What is called IC50 is the concentration at which inhibition is half-maximal. High values mean weaker potency in that assay, low ones greater potency in that assay.
